Reference: US20220220128A1, “HETEROCYCLIC COMPOUNDS AS KINASE INHIBITORS, COMPOSITIONS COMPRISING THE HETEROCYCLIC COMPOUND, AND METHODS OF USE THEREOF” (JS Innopharm (Shanghai) Ltd, priority 2019, published 2022)
Like-named read-outs stand apart in the source and are kept apart here.

How the values were obtained:
human RET kinase = biological target: T1, human RET kinase (Homo sapiens, UniProt P07949); test: RET Kinase Assay (LanthaScreen TR-FRET enzymatic assay); type: biochemical; conditions: 7 nM RET, 23 μM ATP
T1 construct: purchased Carna 08-159
T1 sequence (P07949 29-1114): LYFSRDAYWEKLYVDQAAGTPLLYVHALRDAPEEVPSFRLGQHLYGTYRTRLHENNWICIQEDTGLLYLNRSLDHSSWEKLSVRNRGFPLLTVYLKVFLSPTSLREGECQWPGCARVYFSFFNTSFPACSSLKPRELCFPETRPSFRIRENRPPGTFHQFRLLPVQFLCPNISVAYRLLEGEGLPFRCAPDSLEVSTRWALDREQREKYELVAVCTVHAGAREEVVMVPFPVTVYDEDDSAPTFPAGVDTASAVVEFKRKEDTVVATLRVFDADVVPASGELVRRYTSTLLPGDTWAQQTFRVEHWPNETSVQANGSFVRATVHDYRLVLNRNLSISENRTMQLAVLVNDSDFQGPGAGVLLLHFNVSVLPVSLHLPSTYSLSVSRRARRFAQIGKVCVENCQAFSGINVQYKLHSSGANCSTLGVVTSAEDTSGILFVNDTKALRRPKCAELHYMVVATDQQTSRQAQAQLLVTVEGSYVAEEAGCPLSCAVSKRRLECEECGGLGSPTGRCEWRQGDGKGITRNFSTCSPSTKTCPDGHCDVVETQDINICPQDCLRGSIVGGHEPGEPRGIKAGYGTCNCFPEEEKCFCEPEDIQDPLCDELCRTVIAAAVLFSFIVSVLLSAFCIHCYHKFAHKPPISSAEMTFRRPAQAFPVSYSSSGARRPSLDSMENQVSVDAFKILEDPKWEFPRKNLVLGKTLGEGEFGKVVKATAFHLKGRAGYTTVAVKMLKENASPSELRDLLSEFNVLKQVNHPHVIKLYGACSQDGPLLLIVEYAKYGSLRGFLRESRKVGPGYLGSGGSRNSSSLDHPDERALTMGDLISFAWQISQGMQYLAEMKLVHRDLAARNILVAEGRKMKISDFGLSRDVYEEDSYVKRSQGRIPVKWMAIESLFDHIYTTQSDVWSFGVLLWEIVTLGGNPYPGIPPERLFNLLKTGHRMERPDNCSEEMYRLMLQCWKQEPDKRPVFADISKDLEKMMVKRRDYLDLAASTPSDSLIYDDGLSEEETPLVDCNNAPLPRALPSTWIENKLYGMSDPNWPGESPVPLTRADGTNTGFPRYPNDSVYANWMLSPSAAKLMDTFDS
Procedure, shortened: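 TR-FRET enzymatic read-out using 23 μM ATP, 3 μM FAM-P2 substrate and 7 nM human RET, after 15-min compound pretreatment at room temperature and a 1 h reaction at 28° C in HEPES pH 7.5 buffer. Percent of DMSO control fitted to nonlinear sigmoid curves for IC50.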

human KDR kinase = biological target: T2, human KDR kinase (Homo sapiens, UniProt P35968); test: KDR Kinase Assay (LanthaScreen TR-FRET enzymatic assay); type: biochemical; conditions: 1.2 nM KDR, 92 μM ATP
T2 construct: purchased Carna 08-191
T2 sequence (P35968 20-1356): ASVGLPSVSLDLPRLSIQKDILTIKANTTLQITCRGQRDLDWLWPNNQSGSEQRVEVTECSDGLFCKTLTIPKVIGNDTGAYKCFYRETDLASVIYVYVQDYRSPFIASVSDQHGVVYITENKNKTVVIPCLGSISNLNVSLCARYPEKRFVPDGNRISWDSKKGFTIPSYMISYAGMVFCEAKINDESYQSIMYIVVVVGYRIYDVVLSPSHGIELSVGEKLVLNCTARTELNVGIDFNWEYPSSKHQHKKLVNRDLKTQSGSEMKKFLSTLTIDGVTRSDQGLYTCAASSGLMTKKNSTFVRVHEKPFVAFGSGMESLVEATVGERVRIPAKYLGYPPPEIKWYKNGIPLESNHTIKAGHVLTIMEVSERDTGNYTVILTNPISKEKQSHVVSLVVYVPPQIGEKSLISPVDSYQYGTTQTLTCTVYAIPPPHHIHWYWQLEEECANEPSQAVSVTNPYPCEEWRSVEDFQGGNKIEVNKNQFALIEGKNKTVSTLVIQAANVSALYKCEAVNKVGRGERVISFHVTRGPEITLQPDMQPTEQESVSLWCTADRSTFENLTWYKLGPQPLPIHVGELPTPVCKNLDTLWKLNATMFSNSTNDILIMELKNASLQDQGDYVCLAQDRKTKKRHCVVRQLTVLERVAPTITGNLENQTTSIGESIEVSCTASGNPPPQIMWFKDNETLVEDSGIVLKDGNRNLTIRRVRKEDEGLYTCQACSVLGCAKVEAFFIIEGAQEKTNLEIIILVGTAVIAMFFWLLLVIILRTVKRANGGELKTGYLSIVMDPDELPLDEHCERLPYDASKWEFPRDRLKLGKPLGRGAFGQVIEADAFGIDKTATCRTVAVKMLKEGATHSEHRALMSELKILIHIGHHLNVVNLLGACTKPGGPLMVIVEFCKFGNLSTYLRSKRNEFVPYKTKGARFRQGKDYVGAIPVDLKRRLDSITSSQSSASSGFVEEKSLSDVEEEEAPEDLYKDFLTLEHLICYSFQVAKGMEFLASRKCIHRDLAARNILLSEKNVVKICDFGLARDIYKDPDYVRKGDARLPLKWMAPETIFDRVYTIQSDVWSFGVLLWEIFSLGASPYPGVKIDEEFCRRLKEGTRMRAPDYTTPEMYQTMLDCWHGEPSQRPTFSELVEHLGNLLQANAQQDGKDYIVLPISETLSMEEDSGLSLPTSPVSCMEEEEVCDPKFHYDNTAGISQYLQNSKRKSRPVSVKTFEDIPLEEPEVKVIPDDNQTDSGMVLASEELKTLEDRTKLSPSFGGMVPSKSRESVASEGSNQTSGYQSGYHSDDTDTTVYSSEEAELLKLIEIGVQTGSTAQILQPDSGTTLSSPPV
Procedure, shortened: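 TR-FRET enzymatic format: after 15-min room-temperature compound pretreatment, 1.2 nM human KDR phosphorylated 3 μM FAM-P22 with 92 μM ATP (HEPES pH 7.5, 28° C., one hour). Reactions were quenched with EDTA buffer. IC50 came from nonlinear sigmoid fits of percent-of-vehicle signal ratios.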

TT cells = test: TT Cell Proliferation Assay (WST-8, 8 days); type: cell-based; conditions: Homo sapiens, 192 h, growth inhibition in TT cells, read-out: TT Cellular Activity
Procedure, shortened: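 IC50 was derived from absorbance at 450 nm after 5 h with WST-8, following 8 days' incubation at 37 °C. Final compound levels spanned 0.0005–5 μM in 0.5% DMSO. TT cells were seeded at 6,000 per well in 10% FBS RPMI-1640 and left to attach for 24 h beforehand.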

BAF3-KIF5B-RET cells = biological target: T3, BAF3-KIF5B-RET cells (Homo sapiens, UniProt P07949); test: BAF3-KIF5B-RET Cell proliferation assay (CellTiter-Glo, 72 hours); type: cell-based; conditions: growth inhibition, read-out: BA/F3-KIF5B-RET Cellular activity
T3 construct: fused on or other part: P33176 (Kinesin-1 heavy chain)
T3 sequence (P07949 whole entry, change not shown, the tested form may be a part): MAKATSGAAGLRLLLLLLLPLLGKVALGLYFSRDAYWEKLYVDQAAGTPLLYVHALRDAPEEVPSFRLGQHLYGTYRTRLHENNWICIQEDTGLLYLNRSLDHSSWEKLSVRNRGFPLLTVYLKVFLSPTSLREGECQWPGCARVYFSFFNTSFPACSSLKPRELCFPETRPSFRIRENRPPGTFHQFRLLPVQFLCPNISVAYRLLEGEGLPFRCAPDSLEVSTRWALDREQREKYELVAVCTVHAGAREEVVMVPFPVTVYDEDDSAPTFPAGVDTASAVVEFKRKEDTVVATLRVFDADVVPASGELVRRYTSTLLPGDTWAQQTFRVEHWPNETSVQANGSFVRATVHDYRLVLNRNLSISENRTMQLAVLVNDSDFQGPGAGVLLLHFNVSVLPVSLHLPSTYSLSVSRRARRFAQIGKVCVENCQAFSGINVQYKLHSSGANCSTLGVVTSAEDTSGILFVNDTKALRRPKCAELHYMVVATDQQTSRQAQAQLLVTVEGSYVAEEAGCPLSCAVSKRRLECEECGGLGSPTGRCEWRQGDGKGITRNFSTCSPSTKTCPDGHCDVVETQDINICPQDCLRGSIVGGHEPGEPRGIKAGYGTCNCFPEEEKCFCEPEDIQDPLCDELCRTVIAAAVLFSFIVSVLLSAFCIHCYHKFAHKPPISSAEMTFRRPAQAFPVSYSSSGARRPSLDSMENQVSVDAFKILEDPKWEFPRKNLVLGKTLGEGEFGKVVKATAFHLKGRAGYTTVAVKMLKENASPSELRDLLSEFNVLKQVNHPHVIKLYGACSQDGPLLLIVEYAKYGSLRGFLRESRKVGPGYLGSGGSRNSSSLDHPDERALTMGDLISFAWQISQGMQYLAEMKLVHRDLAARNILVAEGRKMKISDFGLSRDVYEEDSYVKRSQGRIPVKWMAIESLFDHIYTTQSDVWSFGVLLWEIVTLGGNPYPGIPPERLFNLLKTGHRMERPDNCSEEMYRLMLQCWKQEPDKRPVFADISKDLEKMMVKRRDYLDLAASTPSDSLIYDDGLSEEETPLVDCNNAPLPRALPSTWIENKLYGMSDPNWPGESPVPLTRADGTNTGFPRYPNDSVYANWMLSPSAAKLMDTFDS
Procedure, shortened: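 Cells seeded at 2,000/well in RPMI-1640 with 10% FBS and left 24 h at 37 °C, then exposed 72 h to nine compound levels (final 1 μM down to 0.00015 μM, 0.1% DMSO). CellTiter-Glo luminescence gave viability versus DMSO wells, from which IC50 was fitted.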

Row | Structure (SMILES) | IC50 (human RET kinase) [nM] | IC50 (human KDR kinase) [nM] | GI50 (BAF3-KIF5B-RET cells) [nM] | IC50 (TT cells; TT) [nM] | IC50 (TT cells) [nM]
1 | COc1ccc(CN2C[C@@H]3CN(c4ccc(-c5cc(-c6cnn(C)c6)cn6ncc(C#N)c56)cn4)C[C@@H]3C2)cn1 [Example 12, 4-(6-((3aR,6aS)-5-((6-methoxypyridin-3-yl)methyl)hexahydropyrrolo[3,4-c]pyrrol-2(1H)-yl)pyridin-3-yl)-6-(1-methyl-1H-pyrazol-4-yl)pyrazolo[1,5-a]pyridine-3-carbonitrile] | ≤ 10 | 10 to 50 | ≤ 10 |  | 10 to 50
2 | Cn1cc(-c2cc(-c3ccc(N4C5CC6CC4CC(N)(C6)C5)nc3)c3c(C#N)cnn3c2)cn1 [Example 181, 4-(6-((1R,3S,5s,7s)-5-amino-2-azaadamantan-2-yl)pyridin-3-yl)-6-(1-methyl-1H-pyrazol-4-yl)pyrazolo[1,5-a]pyridine-3-carbonitrile] | ≤ 10 | ≤ 10 | 10 to 50 | ≤ 10 | 
3 | CC(C)(O)COc1cc(-c2ccc(N3C4CC5CC3CC(C(=O)Nc3ncccc3Cl)(C5)C4)nc2)c2c(C#N)cnn2c1 [Example 98, (1R,3 S,5s,7s)-N-(3-chloropyridin-2-yl)-2-(5-(3-cyano-6-(2-hydroxy-2-methylpropoxy)pyrazolo[1,5-a]pyridin-4-yl)pyridin-2-yl)-2-azaadamantane-5-carboxamide] | ≤ 10 | 10 to 50 | ≤ 10 | ≤ 10 | 
4 | CC(C)C(O)C(=O)NC[C@@H]1[C@H]2CN(c3ccc(-c4cc(-c5cnn(C)c5)cn5ncc(C#N)c45)cn3)C[C@@H]12 (stereo partly drawn) [Example 75, N-(((1R,5S,6s)-3-(5-(3-cyano-6-(1-methyl-1H-pyrazol-4-yl)pyrazolo[1,5-a]pyridin-4-yl)pyridin-2-yl)-3-azabicyclo[3.1.0]hexan-6-yl)methyl)-2-hydroxy-3-methylbutanamide] | ≤ 10 | 10 to 50 | ≤ 10 | ≤ 10 | 
5 | CC(C)(O)COc1cc(-c2ccc(N3C4CC5CC3CC(NC(=O)c3ncccc3Cl)(C5)C4)nc2)c2c(C#N)cnn2c1 [Example 135, 3-chloro-N-((1R,3S,5s,7s)-2-(5-(3-cyano-6-(2-hydroxy-2-methylpropoxy)pyrazolo[1,5-a]pyridin-4-yl)pyridin-2-yl)-2-azaadamantan-5-yl)picolinainide] | ≤ 10 | 10 to 50 | ≤ 10 | ≤ 10 | 
6 | CC(C)(O)COc1cc(-c2ccc(N3C[C@H]4CN(C(=O)c5c(F)cccc5Cl)C[C@H]4C3)nc2)c2c(C#N)cnn2c1 [Example 9, 4-(6-((3aR,6aS)-5-(2-chloro-6-fluorobenzoyl)hexahydropyrrolo[3,4-c]pyrrol-2(1H)-yl)pyridin-3-yl)-6-(2-hydroxy-2-methylpropoxy)pyrazolo[1,5-a]pyridine-3-carbonitrile] | ≤ 10 | 50 to 100 | 10 to 50 | ≤ 10 | 

Second part, led by results:

Row | IC50 (human RET kinase) [nM] | IC50 (human KDR kinase) [nM] | GI50 (BAF3-KIF5B-RET cells) [nM] | Structure (SMILES) | IC50 (TT cells; TT) [nM] | IC50 (TT cells) [nM]
7 | ≤ 10 | ≤ 10 | ≤ 10 | Cn1cc(-c2cc(-c3ccc(N4C[C@@H]5C[C@@](C)(NC(=O)c6ncccc6Cl)C[C@@H]5C4)nc3)c3c(C#N)cnn3c2)cn1 [Example 55, 3-chloro-N-((3aR,5s,6aS)-2-(5-(3-cyano-6-(1-methyl-1H-pyrazol-4-yl)pyrazolo[1,5-a]pyridin-4-yl)pyridin-2-yl)-5-methyloctahydro-cyclopenta[c]pyrrol-5-yl)picolinamide] | ≤ 10 | 
8 | ≤ 10 | ≤ 10 | ≤ 10 | CC(=O)NC12CC3CC(C1)N(c1ccc(-c4cc(-c5cnn(C)c5)cn5ncc(C#N)c45)cn1)C(C3)C2 [Example 97, N-((1R,3S,5s,7s)-2-(5-(3-cyano-6-(1-methyl-1H-pyrazol-4-yl)pyrazolo[1,5-a]pyridin-4-yl)pyridin-2-yl)-2-azaadamantan-5-yl)acetamide] | ≤ 10 | 
9 | ≤ 10 | 10 to 50 | ≤ 10 | C[C@@]1(NC(=O)c2ncccc2Cl)C[C@H]2CN(c3ccc(-c4cc(OCC5CNCCO5)cn5ncc(C#N)c45)cn3)C[C@H]2C1 (stereo partly shown) [Example 53] | ≤ 10 | 
10 | ≤ 10 | 10 to 50 | ≤ 10 | Cn1cc(-c2cc(-c3cnc(N4C[C@@H]5C[C@@](C)(NC(=O)c6ncccc6Cl)C[C@@H]5C4)cn3)c3c(C#N)cnn3c2)cn1 [Example 61] | ≤ 10 | 
11 | ≤ 10 | 50 to 100 | 50 to 100 | COc1ccc(CN[C@]2(C)C[C@H]3CN(c4cnc(-c5cc(-c6cnn(C)c6)cn6ncc(C#N)c56)cn4)C[C@H]3C2)cn1 [Example 101, 4-(5-((3aR,5s,6aS)-5-(((6-methoxypyridin-3-yl)methyl)amino)-5-methylhexahydrocyclopenta[c]pyrrol-2(1H)-yl)pyrazin-2-yl)-6-(1-methyl-1H-pyrazol-4-yl)pyrazolo[1,5-a]pyridine-3-carbonitrile] | 50 to 100 | 
12 | ≤ 10 | ≤ 10 | ≤ 10 | Cn1cc(-c2cc(-c3ccc(N4C[C@@H]5CN(S(=O)(=O)c6c(F)cccc6Cl)C[C@@H]5C4)nc3)c3c(C#N)cnn3c2)cn1 [Example 11, 4-(6-((3aR,6aS)-5-(2-chloro-6-fluorophenylsulfonyl)hexahydropyrrolo[3,4-c]pyrrol-2(1H)-yl)pyridin-3-yl)-6-(1-methyl-1H-pyrazol-4-yl)pyrazolo[1,5-a]pyridine-3-carbonitrile] | ≤ 10 | 
13 | ≤ 10 | 10 to 50 | ≤ 10 | Cn1cc(-c2cc(-c3ccc(N4C[C@H]5CN(C(=O)c6ncccc6Cl)C[C@H]5C4)nc3)c3c(C#N)cnn3c2)cn1 [Example 4, 4-(6-((3aR,6aS)-5-(3-chloropicolinoyl)hexahydropyrrolo[3,4-c]pyrrol-2(1H)-yl)pyridin-3-yl)-6-(1-methyl-1H-pyrazol-4-yl)pyrazolo[1,5-a]pyridine-3-carbonitrile] | ≤ 10 | 
14 | ≤ 10 | 10 to 50 | ≤ 10 | CCOc1cc(-c2ccc(N3C4CC5CC3CC(NC(=O)c3ncccc3Cl)(C5)C4)nc2)c2c(C#N)cnn2c1 [Example 136, 3-chloro-N-((1R,3S,5s,7s)-2-(5-(3-cyano-6-ethoxypyrazolo[1,5-a]pyridin-4-yl)pyridin-2-yl)-2-azaadamantan-5-yl)picolinamide] | ≤ 10 | 
15 | ≤ 10 | > 100 | 10 to 50 | CC(C)(O)COc1cc(-c2ccc(N3C[C@@H]4C[C@@](C)(NC(=O)c5ncccc5Cl)C[C@@H]4C3)nc2)c2c(C#N)cnn2c1 [Example 54, 3-chloro-N-((3aR,5s,6aS)-2-(5-(3-cyano-6-(2-hydroxy-2-methylpropoxy)pyrazolo[1,5-a]pyridin-4-yl)pyridin-2-yl)-5-methyloctahydro-cyclopenta[c]pyrrol-5-yl)picolinamide] | 10 to 50 | 
16 | ≤ 10 | ≤ 10 | ≤ 10 | Cn1cc(-c2cc(-c3ccc(N4C5CC6CC4CC(C(=O)Nc4ncccc4Cl)(C6)C5)nc3)c3c(C#N)cnn3c2)cn1 [Example 90, (1R,3S,5s,7s)-N-(3-chloropyridin-2-yl)-2-(5-(3-cyano-6-(1-methyl-1H-pyrazol-4-yl)pyrazolo[1,5-a]pyridin-4-yl)pyridin-2-yl)-2-azaadamantane-5-carboxamide] | ≤ 10 | 
